This test concerns MCF7 cells. As to the kind of experiment: Anti-proliferation (viability) of MCF7 cells (Table 7, FIG. 2B). The format is cell-based. The following applies: Homo sapiens, MCF7, MCF7 cells, 3-6 days, 10-point serial dilution; read-out: GI IC50 in MCF-7.

pIC50: −log10 of the molar value.

Usually pIC50 stands for the negative decadic logarithm of the IC50, by convention in mol/L. As for `CC(=O)c1c(C)c2cnc(Nc3ccc(N4CCC5(CC4)CC5C(=O)N4CC5(CC(Nc6nc(NC(C)C)ccc6C(=O)Nc6cc(C)n(C)n6)C5)C4)cn3)nc2n(C2CCCC2)c1=O` (centres unmarked) [CPD-415, 2-((2-(6-(6-((6-acetyl-8-cyclopentyl-5-methyl-7-oxo-7,8-dihydropyrido[2,3-d]pyrimidin-2-yl)amino)pyridin-3-yl)-6-azaspiro[2.5]octane-1-carbonyl)-2-azaspiro[3.3]heptan-6-yl)amino)-N-(1,5-dimethyl-1H-pyrazol-3-yl)-6-(isopropylamino)nicotinamide], the pIC50 is above 7.30.

Consider `CNc1ccc(C(=O)Nc2ccc(N(C)C)nn2)c(NC2CC(C(=O)NC3CCC4(CC3)CCN(c3ccc(Nc5ncc6c(C)c(C(C)=O)c(=O)n(C7CCCC7)c6n5)nc3)CC4)C2)n1` (centres unmarked) [CPD-388, 2-((3-((3-(6-((6-acetyl-8-cyclopentyl-5-methyl-7-oxo-7,8-dihydropyrido[2,3-d]pyrimidin-2-yl)amino)pyridin-3-yl)-3-azaspiro[5.5]undecan-9-yl)carbamoyl)cyclobutyl)amino)-N-(6-(dimethylamino)pyridazin-3-yl)-6-(methylamino)nicotinamide], for which the pIC50 is below 7.00.

For the compound `CC(=O)c1c(C)c2cnc(Nc3ccc(N4CCN(C(C)CC(=O)NC5CC(Nc6nc(NC(C)C)ccc6C(=O)Nc6ccc(N(C)C)nn6)C5)CC4)cn3)nc2n(C2CCCC2)c1=O` (centres unmarked) [CPD-365, 2-((3-(3-(4-(6-((6-acetyl-8-cyclopentyl-5-methyl-7-oxo-7,8-dihydropyrido[2,3-d]pyrimidin-2-yl)amino)pyridin-3-yl)piperazin-1-yl)butanamido)cyclobutyl)amino)-N-(6-(dimethylamino)pyridazin-3-yl)-6-(isopropylamino)nicotinamide], the pIC50 is above 7.30.

For the compound `CC(=O)c1c(C)c2cnc(Nc3ccc(N4CCN(CC(=O)N5CCC(Nc6nc(NC(C)C)ccc6C(=O)Nc6cc(C)on6)CC5)CC4)cn3)nc2n(C2CCCC2)c1=O` [CPD-290, 2-((1-(2-(4-(6-((6-acetyl-8-cyclopentyl-5-methyl-7-oxo-7,8-dihydropyrido[2,3-d]pyrimidin-2-yl)amino)pyridin-3-yl)piperazin-1-yl)acetyl)piperidin-4-yl)amino)-6-(isopropylamino)-N-(5-methylisoxazol-3-yl)nicotinamide], the pIC50 was below 7.00.

As to `CC(=O)c1c(C)c2cnc(Nc3ccc(N4CCN(CC(=O)NCCCCCNc5nc6[nH]ccc6cc5C(=O)Nc5ccc(N(C)C)nn5)CC4)cn3)nc2n(C2CCCC2)c1=O` [CPD-251, 6-((5-(2-(4-(6-((6-acetyl-8-cyclopentyl-5-methyl-7-oxo-7,8-dihydropyrido[2,3-d]pyrimidin-2-yl)amino)pyridin-3-yl)piperazin-1-yl)acetamido)pentyl)amino)-N-(6-(dimethylamino)pyridazin-3-yl)-1H-pyrrolo[2,3-b]pyridine-5-carboxamide], the pIC50 was below 7.00.

With `[2H]C([2H])([2H])Nc1ccc(C(=O)Nc2ccc(N(C)C)nn2)c(NC2CC23CCN(C(=O)CC(C)N2CCN(c4ccc(Nc5ncc6c(C)c(C(C)=O)c(=O)n(C7CCCC7)c6n5)nc4)CC2)CC3)n1` (centres unmarked) [CPD-383, 2-((6-(3-(4-(6-((6-acetyl-8-cyclopentyl-5-methyl-7-oxo-7,8-dihydropyrido[2,3-d]pyrimidin-2-yl)amino)pyridin-3-yl)piperazin-1-yl)butanoyl)-6-azaspiro[2.5]octan-1-yl)amino)-N-(6-(dimethylamino)pyridazin-3-yl)-6-((methyl-d3)amino)nicotinamide], the pIC50 was below 7.00.

As to `CNc1ccc(C(=O)Nc2cc(C)n(C3CC3)n2)c(NC2CC3(CC(NC(=O)CN4CCN(c5ccc(Nc6ncc7c(C)c(C(C)=O)c(=O)n(C8CCCC8)c7n6)nc5)CC4)C3)C2)n1` (centres unmarked) [CPD-315, 2-((6-(2-(4-(6-((6-acetyl-8-cyclopentyl-5-methyl-7-oxo-7,8-dihydropyrido[2,3-d]pyrimidin-2-yl)amino)pyridin-3-yl)piperazin-1-yl)acetamido)spiro[3.3]heptan-2-yl)amino)-N-(1-cyclopropyl-5-methyl-1H-pyrazol-3-yl)-6-(methylamino)nicotinamide], the pIC50 is below 7.00.

Regarding `[2H]C([2H])([2H])Nc1ccc(C(=O)Nc2ccc(N(C)C)nn2)c(NC2CN(C(=O)CN3CCC4(CCN(c5ccc(Nc6ncc7c(C)c(C(C)=O)c(=O)n(C8CCCC8)c7n6)nc5)C4)C3)C2)n1` (centres unmarked) [CPD-442, 2-((1-(2-(7-(6-((6-acetyl-8-cyclopentyl-5-methyl-7-oxo-7,8-dihydropyrido[2,3-d]pyrimidin-2-yl)amino)pyridin-3-yl)-2,7-diazaspiro[4.4]nonan-2-yl)acetyl)azetidin-3-yl)amino)-N-(6-(dimethylamino)pyridazin-3-yl)-6-((methyl-d3)amino)nicotinamide], the pIC50 was below 7.00.

`[2H]C([2H])([2H])Nc1ccc(C(=O)Nc2cn(C)c(C3CC3)n2)c(NC2CC3(C2)CN(C(=O)CC(N2CCN(c4ccc(Nc5ncc6c(C)c(C(C)=O)c(=O)n(C7CCCC7)c6n5)nc4)CC2)C(F)(F)F)C3)n1` (centres unmarked) [CPD-435, 2-((2-(3-(4-(6-((6-acetyl-8-cyclopentyl-5-methyl-7-oxo-7,8-dihydropyrido[2,3-d]pyrimidin-2-yl)amino)pyridin-3-yl)piperazin-1-yl)-4,4,4-trifluorobutanoyl)-2-azaspiro[3.3]heptan-6-yl)amino)-N-(2-cyclopropyl-1-methyl-1H-imidazol-4-yl)-6-((methyl-d3)amino)nicotinamide]: the pIC50 is above 7.30.

As to `[2H]C([2H])([2H])Nc1ccc(C(=O)Nc2ccc(N(C)C)nn2)c(NC2CC3(CC(NC(=O)C(C)N4CCN(c5ccc(Nc6ncc7c(C)c(C(C)=O)c(=O)n(C8CCCC8)c7n6)nc5)CC4)C3)C2)n1` (centres unmarked) [CPD-438, 2-((6-(2-(4-(6-((6-acetyl-8-cyclopentyl-5-methyl-7-oxo-7,8-dihydropyrido[2,3-d]pyrimidin-2-yl)amino)pyridin-3-yl)piperazin-1-yl)propanamido)spiro[3.3]heptan-2-yl)amino)-N-(6-(dimethylamino)pyridazin-3-yl)-6-((methyl-d3)amino)nicotinamide], the pIC50 was 7.00 to 7.30.

For `CNc1ccc(C(=O)Nc2ccc(N(C)C)nn2)c(NC2CC(N3CCC(CN4CCN(c5ccc(Nc6ncc7c(C)c(C(C)=O)c(=O)n(C8CCCC8)c7n6)nc5)CC4)C3)C2)n1` (centres unmarked) [CPD-319, 2-((3-(3-((4-(6-((6-acetyl-8-cyclopentyl-5-methyl-7-oxo-7,8-dihydropyrido[2,3-d]pyrimidin-2-yl)amino)pyridin-3-yl)piperazin-1-yl)methyl)pyrrolidin-1-yl)cyclobutyl)amino)-N-(6-(dimethylamino)pyridazin-3-yl)-6-(methylamino)nicotinamide], the pIC50 was below 7.00.

`CC(=O)c1c(C)c2cnc(Nc3ccc(N4CCN(CC(=O)NC5CCC(Nc6nc(NC(C)C)ccc6C(=O)Nc6cc(C)on6)C5)CC4)cn3)nc2n(C2CCCC2)c1=O` (centres unmarked) [CPD-295, 2-((3-(2-(4-(6-((6-acetyl-8-cyclopentyl-5-methyl-7-oxo-7,8-dihydropyrido[2,3-d]pyrimidin-2-yl)amino)pyridin-3-yl)piperazin-1-yl)acetamido)cyclopentyl)amino)-6-(isopropylamino)-N-(5-methylisoxazol-3-yl)nicotinamide]: the pIC50 is below 7.00.

For `CC(=O)c1c(C)c2cnc(Nc3ccc(N4CCN(C(C)C(=O)NC5CC(Nc6nc(NC(C)C)ccc6C(=O)Nc6cn(C)c(C7CC7)n6)C5)CC4)cn3)nc2n(C2CCCC2)c1=O` (centres unmarked) [CPD-327, 2-((3-(2-(4-(6-((6-acetyl-8-cyclopentyl-5-methyl-7-oxo-7,8-dihydropyrido[2,3-d]pyrimidin-2-yl)amino)pyridin-3-yl)piperazin-1-yl)propanamido)cyclobutyl)amino)-N-(2-cyclopropyl-1-methyl-1H-imidazol-4-yl)-6-(isopropylamino)nicotinamide], the pIC50 is below 7.00.

`[2H]C([2H])([2H])Nc1ccc(C(=O)Nc2cc(C)on2)c(NC2CC(C(C)NC(=O)CN3CCN(c4ccc(Nc5ncc6c(C)c(C(C)=O)c(=O)n(C7CCCC7)c6n5)nc4)CC3)C2)n1` (centres unmarked) [CPD-361, 2-((3-(1-(2-(4-(6-((6-acetyl-8-cyclopentyl-5-methyl-7-oxo-7,8-dihydropyrido[2,3-d]pyrimidin-2-yl)amino)pyridin-3-yl)piperazin-1-yl)acetamido)ethyl)cyclobutyl)amino)-6-((methyl-d3)amino)-N-(5-methylisoxazol-3-yl)nicotinamide]: the pIC50 is below 7.00.

In the case of `CNc1ccc(C(=O)Nc2ccc(N(C)C)nn2)c(NC23CC(NC(=O)CN4CCN(c5ccc(Nc6ncc7c(C)c(C(C)=O)c(=O)n(C8CCCC8)c7n6)nc5)CC4)(C2)C3)n1` [CPD-346, 2-((3-(2-(4-(6-((6-acetyl-8-cyclopentyl-5-methyl-7-oxo-7,8-dihydropyrido[2,3-d]pyrimidin-2-yl)amino)pyridin-3-yl)piperazin-1-yl)acetamido)bicyclo[1.1.1]pentan-1-yl)amino)-N-(6-(dimethylamino)pyridazin-3-yl)-6-(methylamino)nicotinamide], the pIC50 was below 7.00.

`[2H]C([2H])([2H])Nc1ccc(C(=O)Nc2ccc(N(C)C)nn2)c(NC2CC(CNC(=O)CN3CCN(c4ccc(Nc5ncc6c(C)c(C(C)=O)c(=O)n(C7CCCC7)c6n5)nc4)CC3)C2)n1` (centres unmarked) [CPD-343, 2-((3-((2-(4-(6-((6-acetyl-8-cyclopentyl-5-methyl-7-oxo-7,8-dihydropyrido[2,3-d]pyrimidin-2-yl)amino)pyridin-3-yl)piperazin-1-yl)acetamido)methyl)cyclobutyl)amino)-N-(6-(dimethylamino)pyridazin-3-yl)-6-((methyl-d3)amino)nicotinamide]: the pIC50 is 7.00 to 7.30.

Regarding `[2H]C([2H])([2H])Nc1ccc(C(=O)Nc2cc(C)on2)c(NC2CCC(NC(=O)CN3CCN(c4ccc(Nc5ncc6c(C)c(C(C)=O)c(=O)n(C7CCCC7)c6n5)nc4)CC3)C2)n1` (centres unmarked) [CPD-294, 2-((3-(2-(4-(6-((6-acetyl-8-cyclopentyl-5-methyl-7-oxo-7,8-dihydropyrido[2,3-d]pyrimidin-2-yl)amino)pyridin-3-yl)piperazin-1-yl)acetamido)cyclopentyl)amino)-6-((methyl-d3)amino)-N-(5-methylisoxazol-3-yl)nicotinamide], the pIC50 was below 7.00.

The values are drawn from US20260297081A1, “COMPOUNDS AND METHODS OF TREATING CANCERS” (Cullgen Inc., priority 2023, published 2026).
